The source made the active and inactive calls. The calls are words filed in the database; no cut-off is given here.
How the values were obtained:
HeLa = details: Homo sapiens, dose 100.0 nM, time 15.0 min;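 further: HDAC inhibition in HeLa cells, read on a microplate reader using an acetylated peptide AMC substrate, expressed relative to control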
Mus musculus [1] = experiment: Inhibition of renal cystogenesis in PKD1 knockout ADPKD C57BL/6 mouse assessed as reduction kidney to body weight ratio index at 1 mg/kg, sc administered once daily for 1 week (19.5 +/-0.5%); assay type: functional; design: scale not given: the % may be the effect or the level left; details: time 1 weeks
MDCK [2] = experiment: Upregulation of acetylation of alpha tubulin level in MDCK cells incubated for 24 hrs by Western blot analysis; assay type: functional, cell-based; details: Canis lupus familiaris, dose 0.3-1 µM
MDCK [3] = experiment: Antiproliferative activity against MDCK cells at 0.3 to 1 uM by Hoechst 33342 and EdU staining based analysis; assay type: functional, cell-based; details: Canis lupus familiaris, dose 0.3-1 µM
MDCK [4] = experiment: Inhibition of colony formation in MDCK cells measured after 8 days by crystal violet staining based analysis; assay type: functional, cell-based; details: Canis lupus familiaris, dose 0.3-1 µM, time 8.0 day
MDCK [5] = experiment: Cytotoxicity against MDCK cells at 0.3 to 1 uM by CCK-8 assay; assay type: toxicity, cell-based, Canis lupus familiaris; details: dog, dose 0.3-1 µM
MDCK [6] = experiment: Inhibition of cystogenesis in PKD1 knockout ADPKD MDCK cells assessed as inhibition of cyst formation at 0.3 to 1 uM; assay type: functional, cell-based; details: Canis lupus familiaris, dose 0.3-1 µM, time 4-10 day, TDE = time-dependent effect
Kidney = experiment: Ex vivo inhibition of renal cystogenesis in wild type C57BL/6 mouse kidney assessed as suppression of 8-Br-cAMP-induced cyst development at 1 uM treated for 6 days by inverted microscopic analysis; assay type: functional, tissue-based; details: time 6.0 day
Mus musculus [7] = experiment: Inhibition of renal cystogenesis in PKD1 knockout ADPKD C57BL/6 mouse assessed as reduction in kidney size at 1 mg/kg, sc administered once daily for 1 week; assay type: functional, organism-based; details: time 1.0 weeks
Mus musculus [8] = experiment: Inhibition of renal cystogenesis in PKD1 knockout ADPKD C57BL/6 mouse assessed as decrease in kidney size at 1 mg/kg, sc administered once daily for 1 week by H and E staining based analysis; assay type: functional, organism-based; details: time 1.0 weeks
Mus musculus [9] = experiment: Inhibition of renal cystogenesis in PKD1 knockout ADPKD C57BL/6 mouse assessed as reduction in renal cyst formation at 1 mg/kg, sc administered once daily for 1 week by H and E staining based analysis; assay type: functional, organism-based; details: time 1.0 weeks
Mus musculus [10] = experiment: Inhibition of renal cystogenesis in PKD1 knockout ADPKD C57BL/6 mouse assessed as increase in renal parenchyma at 1 mg/kg, sc administered once daily for 1 week by H and E staining based analysis; assay type: functional, organism-based; details: time 1.0 weeks
[11] = Half life in C57BL/6 mouse at 1 mg/kg, sc by LC-MS/MS analysis; assay type: ADME, organism-based; details: in vivo
[12] = Terminal elimination half life in C57BL/6 mouse at 1 mg/kg, sc by LC-MS/MS analysis; assay type: ADME, organism-based; details: in vivo, read-out: LambdaZ (converted)
[13] = Cmax in C57BL/6 mouse at 1 mg/kg, sc by LC-MS/MS analysis; assay type: ADME, organism-based; details: in vivo
[14] = Tmax in C57BL/6 mouse at 1 mg/kg, sc by LC-MS/MS analysis; assay type: ADME, organism-based; details: in vivo
[15] = AUC (0 to t) in C57BL/6 mouse at 1 mg/kg, sc by LC-MS/MS analysis; assay type: ADME, organism-based; details: in vivo
[16] = AUC (0 to infinity) in C57BL/6 mouse at 1 mg/kg, sc by LC-MS/MS analysis; assay type: ADME, organism-based; details: in vivo

SMILES | inhibition (HeLa) [%] | further results
O=C(CCCCCCOc1ccc(-c2nc3ccccc3s2)cc1F)NO | 46.2 | –
O=C(COc1ccc(-c2nc3ccccc3s2)cc1)NO | 34.8 | –
O=C(CCCCCCOc1ccc(-c2nc3ccccc3s2)c(F)c1)NO | 83 | –
CCOc1cc(-c2nc3ccccc3s2)ccc1OCCCCCCC(=O)NO | 75 | –
COc1ccc(-c2nc3ccc(Cl)cc3s2)cc1OCCCCCCC(=O)NO | 44.5 | –
Cc1cc(-c2nc3ccccc3s2)ccc1OCCCCCCC(=O)NO | 39.3 | –
O=C(CCCCCCOc1ccc(-c2nc3ccccc3s2)cc1Cl)NO | 18.3 | –
O=C(CCCCCCCOc1cccc(-c2nc3ccccc3s2)c1)NO | 65.3 | –
O=C(CCCCCCOc1ccc(-c2nc3cc(Cl)ccc3s2)cc1)NO | 42.7 | –
Cc1ccccc1C(=O)Nc1ccc(C(=O)N2CCCC(O)c3cc(Cl)ccc32)c(C)c1 (configuration not stated) [TOLVAPTAN] | – | Activity (Mus musculus [1]): 15.8%
O=C(CCCCOc1ccc(-c2nc3ccccc3s2)cc1)NO | 56 | –
Cc1ccc2nc(-c3ccc(OCCCCCCC(=O)NO)cc3)sc2c1 | 52.3 | –
O=C(CCCOc1ccc(-c2nc3ccccc3s2)cc1)NO | 3.33 | –
COc1ccc2nc(-c3ccc(OC)c(OCCCCCCC(=O)NO)c3)sc2c1 | 80.3 | –
O=C(CCCCCCOc1ccc(-c2nc3ccccc3s2)cc1)NO | 84.2 | –
COc1ccc(-c2nc3cc(Cl)ccc3s2)cc1OCCCCCCC(=O)NO | 37.2 | –
O=C(CCCCCOc1ccc(-c2nc3ccccc3s2)cc1)NO | 26.8 | –
COc1cc(-c2nc3ccccc3s2)ccc1OCCCCCCC(=O)NO | 74.2 | –

SMILES | inhibition (HeLa) [%] | further results
O=C(CCCCCCOc1cccc(-c2nc3ccccc3s2)c1)NO | 76.8 | –
COc1ccc2nc(-c3ccc(OCCCCCCC(=O)NO)cc3)sc2c1 | 51.7 | –
O=C(CCCCCCOc1cccc(-c2nc3ccccc3s2)c1F)NO | 68.7 | –
COc1ccc(-c2nc3ccccc3s2)cc1OCCCCCCC(=O)NO | 88 | Activity (MDCK [2]): Dose-Dependent Effect; Activity (MDCK [3]): Active; inhibition (MDCK [4]): Dose-Dependent Effect; Activity (MDCK [5]): Non-Toxic; inhibition (MDCK [6]): Tde; Activity (Kidney): Active; Activity (Mus musculus [7]): Active; Activity (Mus musculus [1]): 14.2%; Activity (Mus musculus [8]): Active; Activity (Mus musculus [9]): Active; Activity (Mus musculus [10]): Active; half-life [11]: 5.75 h; k el [12]: 3.61e-05 s⁻¹; Cmax [13]: 572 ng/mL; Tmax [14]: 0.25 h; AUC(0-t) [15]: 597 ng·h/mL; AUC(0-inf) [16]: 614 ng·h/mL
COc1ccc(-c2nc3ccc(C)cc3s2)cc1OCCCCCCC(=O)NO | 67.8 | –
O=C(CCCCCCOc1cccc(-c2nc3ccccc3s2)c1Cl)NO | 62 | –
COc1cc(-c2nc3ccccc3s2)cc(OC)c1OCCCCCCC(=O)NO | 81.7 | –
O=C(CCCCCCCOc1ccc(-c2nc3ccccc3s2)cc1)NO | 9.17 | –
O=C(CCCCCCOc1ccc(-c2nc3ccc(F)cc3s2)cc1)NO | 61.2 | –
COc1ccc(-c2nc3ccccc3s2)cc1OCCCCCCCC(=O)NO | 28.2 | –
O=C(CCCCCCOc1ccc(-c2nc3ccc(Cl)cc3s2)cc1)NO | 21.7 | –
O=C(CCCCCOc1cccc(-c2nc3ccccc3s2)c1)NO | 76.7 | –
O=C(COc1cccc(-c2nc3ccccc3s2)c1)NO | 66.5 | –
O=C(CCCCCCOc1ccc(-c2nc3ccccc3s2)c(Cl)c1)NO | 33.2 | –
O=C(CCCOc1cccc(-c2nc3ccccc3s2)c1)NO | 41.2 | –
COc1ccc(-c2nc3ccc(F)cc3s2)cc1OCCCCCCC(=O)NO | 77.3 | –
O=C(CCCCOc1cccc(-c2nc3ccccc3s2)c1)NO | 45.7 | –

— ChEMBL document CHEMBL5500362, “Benzothiazole derivatives as histone deacetylase inhibitors for the treatment of autosomal dominant polycystic kidney disease” (Eur J Med Chem, 2024)
